Data taken from patent US12172975B2, “1H-indazole carboxamides as receptor-interacting protein kinase 1 inhibitors (RIPK1)” (BRISTOL-MYERS SQUIBB COMPANY, priority 2018, dated 2024).
Structures can show the parent of a compound that is named as a salt. Where two headings read alike, the source gives them in different places.

Experiments:
[1] = biological target: His-GST-TVMV-hRIPK1 (1-324) (Homo sapiens (Human), UniProt Q13546); test: RIPK1 HTRF Binding Assay; details: read-out: RIPK1 HTRF (IC50); FRET probe displacement, 1 h at rt
[2] = tested on: MLKL phosphorylation in HT29-L23 human colorectal adenocarcinoma cells; test: MLKL Phosphorylation High-Content Assay; type: cell-based; details: 6 h, necroptosis induced with TNFα, SMAC mimetic and Z-VAD, read-out: pMLKL (IC50)
In short: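 Following fixation and staining for phospho-S358 MLKL with Hoechst nuclear counterstain, high-content imaging quantified phosphorylation in HT29-L23 cells challenged 6 h with TNFα 35 ng/mL, SMAC mimetic 700 nM and Z-VAD 140 nM. Nec-1s at 6.25 μM defined full inhibition; 4-parameter logistic fits yielded IC50 and Ymax.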

His-GST-TVMV-hRIPK1 (1-324), sequence (Q13546 1-324): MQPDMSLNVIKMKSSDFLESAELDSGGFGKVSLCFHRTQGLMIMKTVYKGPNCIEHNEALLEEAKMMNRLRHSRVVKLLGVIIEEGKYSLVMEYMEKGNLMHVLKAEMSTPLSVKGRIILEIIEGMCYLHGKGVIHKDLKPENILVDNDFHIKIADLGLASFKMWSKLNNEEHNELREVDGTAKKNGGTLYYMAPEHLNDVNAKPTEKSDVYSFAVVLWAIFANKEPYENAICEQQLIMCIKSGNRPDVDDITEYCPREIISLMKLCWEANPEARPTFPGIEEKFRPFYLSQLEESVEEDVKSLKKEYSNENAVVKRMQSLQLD

SMILES	IC50 [1]	IC50 ([2]; Homo sapiens)	IC50 [2]
[2H]C([2H])([2H])NC(=O)c1n[nH]c2cc(-c3cnc(OC)c(C(=O)NCC(C)(C)C(=O)OC4CCOCC4)c3)ccc12 [Example 148, oxan-4-yl 3-[(2-methoxy-5-{3-[(deutero)methylcarbamoyl]-1H-indazol-6-yl}pyridin-3-yl)formamido]-2,2-dimethyl-propanoate]	54 nM	96 nM	–
CNC(=O)c1n[nH]c2cc(-c3cnc(OC)c(C(=O)NCc4cc(OC(F)(F)F)ccc4F)c3)ccc12 [Example 137]	1.6 nM	–	2.9 nM
CNC(=O)c1n[nH]c2cc(-c3cnc(C)c(C(=O)NCc4cc(F)ccc4OC4CCCC4)c3)ccc12 [Example 157, 6-[5-({[2-(cyclopentyloxy)-5-fluoro-phenyl]methyl}carbamoyl)-6-methylpyridin-3-yl]-N-methyl-1H-indazole-3-carboxamide, TFA]	2.1 nM	6.8 nM	–
[2H]C([2H])([2H])NC(=O)c1n[nH]c2cc(-c3cnc(OC([2H])([2H])[2H])c(C(=O)N[C@@H]4CN(C(=O)C5CC(F)(F)C5)C[C@@H]4F)c3)ccc12 [Example 12, 6-(5-(((3R,4S)-1-(3,3-difluorocyclobutanecarbonyl)-4-fluoropyrrolidin-3-yl)carbamoyl)-6-methoxyd3-pyridin-3-yl)-N-methyl d3-1H-indazole-3-carboxamide]	42 nM	400 nM	–
CNC(=O)c1n[nH]c2cc(-c3cnc(OC)c(C(=O)NCc4ncccc4OCC4CCC4)c3)ccc12 [Example 117, 6-[5-({[3-(cyclobutylmethoxy)-pyridin-2-yl]methyl}carbam-oyl)-6-methoxypyridin-3-yl]-N-methyl-1H-indazole-3-carboxamide, TFA]	2.6 nM	–	11 nM
CNC(=O)c1n[nH]c2cc(-c3cc(C(=O)NC(C)c4cccc(OC(F)(F)F)c4)c(C)nc3C)ccc12 (single isomer, unassigned) [Example 163, 6-[2,6-dimethyl-5-({1-[3-(trifluoromethoxy)phenyl]-ethyl}carbamoyl)pyridin-3-yl]-N-methyl-1H-indazole-3-carboxamide]	47 nM	–	180 nM
[2H]C([2H])([2H])NC(=O)c1n[nH]c2cc(-c3cnc(OC([2H])([2H])[2H])c(C(=O)N[C@H](C)c4cccc(C(F)(F)F)c4)c3)ccc12 [Example 3, (R)-6-(6-(methoxy-d3)-5-((1-(3-(trifluoromethyl)phenyl)ethyl)carbamoyl)pyridin-3-yl)-N-(methyl-d3)-1H-indazole-3-carboxamide]	46 nM	41 nM	–
CNC(=O)c1n[nH]c2cc(-c3cnc(OC)c(C(=O)NCc4cc(F)cc(F)c4OC(C)C)c3)ccc12 [Example 126, 6-[5-({[3,5-difluoro-2-(propan-2-yloxy)phenyl]methyl}-carbamoyl)-6-methoxypyridin-3-yl]-N-methyl-1H-indazole-3-carboxamide]	4.2 nM	6.9 nM	–
[2H]C([2H])([2H])Oc1ncc(-c2ccc3c(C(=O)NCC4CC4)n[nH]c3c2)cc1C(=O)NCCC(=O)OC(C)(C)C [Example 165, tert-butyl 3-[(5-{3-[(cyclopropyl-methyl)carbamoyl]-1H-indazol-6-yl}-2-(deutero)methoxypyridin-3-yl)formamido]propanoate]	140 nM	15 nM	–
[2H]C([2H])([2H])Oc1ncc(-c2ccc3c(C(=O)NC)n[nH]c3c2)cc1C(=O)N[C@@H](C)c1cccc(C(F)(F)F)c1 [Example 35, 6-[6-(deutero)methoxy-5-{[(1S)-1-[3-(trifluoromethyl)phenyl]-ethyl]carbamoyl}pyridin-3-yl]-N-methyl-1H-indazole-3-carboxamide]	10 nM	44 nM	–
CNC(=O)c1n[nH]c2cc(-c3cnc(OC)c(C(=O)NCC4CCCC4(C)C)c3)ccc12 (stereo not shown) [Example 116, 6-(5-{[(2,2-dimethylcyclo-pentyl)methyl]carbamoyl}-6-methoxypyridin-3-yl)-N-methyl-1H-indazole-3-carbox-amide]	9.6 nM	–	54 nM
CNC(=O)c1n[nH]c2cc(-c3cnc(OC)c(C(=O)NCc4c(F)cccc4OC(C)C)c3)ccc12 [Example 127, 6-[5-({[2-fluoro-6-(propan-2-yloxy)phenyl]methyl}-carbamoyl)-6-methoxy-pyridin-3-yl]-N-methyl-1H-indazole-3-carboxamide]	2.3 nM	3.7 nM	–
CCNC(=O)c1n[nH]c2cc(-c3cnc(OC)c(C(=O)N[C@H](C)c4cccc(OC(F)(F)F)c4)c3)ccc12 [Example 232, N-[(1,1,2,2,2-deutero)ethyl]-6-[6-(deutero)methoxy-5-{[(1R)-1-[3-(trifluoromethoxy)phenyl](2,2,2-deutero)ethyl]carbamoyl}pyridin-3-yl]-1H-indazole-3-carboxamide]	33 nM	–	26 nM
CCNC(=O)c1n[nH]c2cc(-c3cnc(OC)c(C(=O)N[C@H](C)c4cc(OC(F)(F)F)ccc4F)c3)ccc12 [Example 233, N-[(1,1,2,2,2-deutero)ethyl]-6-(5-{[(1R)-1-[2-fluoro-5-(trifluorometh-oxy)phenyl](2,2,2-deutero)ethyl]-carbamoyl}-6-(deutero)methoxy-pyridin-3-yl)-1H-indazole-3-carbox-amide]	54 nM	–	77 nM
CNC(=O)c1n[nH]c2cc(-c3cnc(OC)c(C(=O)NCCC(O)c4ccc(Cl)cn4)c3)ccc12 (stereo not shown) [Example 65, 6-(5-{[3-(5-chloropyridin-2-yl)-3-hydroxypropyl]carbamoyl}-6-methoxypyridin-3-yl)-N-methyl-1H-indazole-3-carbox-amide]	8.3 nM	–	1.6 nM
[2H]C([2H])([2H])Oc1ncc(-c2ccc3c(C(=O)NC([2H])([2H])C([2H])([2H])[2H])n[nH]c3c2)cc1C(=O)N[C@H](C)c1ccccc1OC(F)(F)F [Example 2, (R)—N-(ethyl-d5)-6-(6-(methoxy-d3)-5-((1-(2-(trifluoromethoxy)phenyl)ethyl)carbamoyl)pyridin-3-yl)-1H-indazole-3-carboxamide]	5.5 nM	3.5 nM	–
CNC(=O)c1n[nH]c2cc(-c3cnc(C)c(C(=O)NC(C)c4cccc(OC(F)(F)F)c4)c3)ccc12 (single isomer, unassigned) [Example 155, N-methyl-6-[6-methyl-5-({1-[3-(tri-fluoromethoxy)phenyl]ethyl}car-bamoyl)pyridin-3-yl]-1H-indazole-3-carboxamide]	13 nM	–	22 nM
[2H]C([2H])([2H])Oc1ncc(-c2ccc3c(C(=O)NC)n[nH]c3c2)cc1C(=O)NC(C)c1cc(F)ccc1C(F)(F)F (stereo not shown) [Example 36, 6-[5-({1-[5-fluoro-2-(trifluoro-methyl)phenyl]ethyl}carbamoyl)-6-(deutero)methoxypyridin-3-yl]-N-methyl-1H-indazole-3-carbox-amide]	9.3 nM	20 nM	–
CCCN(CC1CC1)C(=O)C1CCCC(NC(=O)c2cc(-c3ccc4c(C(=O)NC)n[nH]c4c3)cnc2OC)C1 (stereo not shown) [Example 123, 6-[5-({3-[(cyclopropylmethyl)-(propyl)carbamoyl]cyclohexyl}-carbamoyl)-6-methoxypyridin-3-yl]-N-methyl-1H-indazole-3-carboxamide]	21 nM	75 nM	–
CNC(=O)c1n[nH]c2cc(-c3cnc(OC)c(C(=O)NCCCOc4ccccc4)c3)ccc12 [Example 55, 6-{6-methoxy-5-[(3-phenoxy-propyl)carbamoyl]pyridin-3-yl}-N-methyl-1H-indazole-3-carboxamide]	12 nM	27 nM	–
CNC(=O)c1n[nH]c2cc(-c3cnc(OC)c(C(=O)NCc4cccc(OC(F)(F)F)c4F)c3)ccc12 [Example 119, 6-[5-({[2-fluoro-3-(trifluoro-methoxy)phenyl]methyl}-carbamoyl)-6-methoxy-pyridin-3-yl]-N-methyl-1H-indazole-3-carboxamide]	33 nM	110 nM	–
[2H]C([2H])([2H])NC(=O)c1n[nH]c2cc(-c3cnc(OC([2H])([2H])[2H])c(C(=O)NC(C)c4cc(F)ccc4C(F)(F)F)c3)ccc12 (stereo not shown) [Example 212]	15 nM	28 nM	–
CCOC(=O)C(C)(C)CNC(=O)c1cc(-c2ccc3c(C(=O)NC)n[nH]c3c2)cnc1OC [Example 88, ethyl 3-({2-methoxy-5-[3-(methylcarbamoyl)-1H-indazol-6-yl]pyridin-3-yl}-formamido)-2,2-dimethyl-propanoate]	52 nM	250 nM	–
CNC(=O)c1n[nH]c2cc(-c3cnc(C)c(C(=O)NC(C)c4cccc(OC(F)(F)F)c4)c3)ccc12 (single isomer, unassigned) [Example 156, N-methyl-6-[6-methyl-5-({1-[3-(tri-fluoromethoxy)phenyl]ethyl}car-bamoyl)pyridin-3-yl]-1H-indazole-3-carboxamide]	3.7 nM	–	7.9 nM
CNC(=O)c1n[nH]c2cc(-c3cnc(OC)c(C(=O)NCc4ccccc4CN(C)C)c3)ccc12 [Example 54, 6-{5-[({2-[(dimethylamino)-methyl]phenyl}methyl)carbam-oyl]-6-methoxypyridin-3-yl}-N-methyl-1H-indazole-3-carboxamide]	28 nM	–	120 nM
COc1ncc(-c2ccc3c(C(=O)NCC4CC4)n[nH]c3c2)cc1C(=O)NCc1ccccc1OC(F)(F)F [Example 172, N-(cyclopropylmethyl)-6-[6-methoxy-5-({[2-(trifluoro-methoxy)phenyl]methyl}-carbamoyl)pyridin-3-yl]-1H-indazole-3-carboxamide]	14 nM	28 nM	–
